Data as given in ChEMBL document CHEMBL1122566, “Resorcinol congeners of dopamine derived from benzocycloheptene and indan” (1984).

How the values were obtained:
Felis catus [1] = assay: Effect on increase in heart rate in anesthetized cats at intravenous dose of 30 ug/kg; type: functional
Felis catus [2] = assay: Effect on rise in arterial pressure in anesthetized cats at intravenous dose of 300 ug/kg; type: functional, Artery
Felis catus [3] = assay: Effect on rise in arterial pressure in anesthetized cats at intravenous dose of 100 ug/kg; type: functional, Artery
Felis catus [4] = assay: Effect on increase in heart rate in anesthetized cats at intravenous dose of 300 ug/kg; type: functional
Felis catus [5] = assay: Effect on rise in arterial pressure in anesthetized cats at intravenous dose of 30 ug/kg; type: functional, Artery
Felis catus [6] = assay: Effect on increase in heart rate in anesthetized cats at intravenous dose of 100 ug/kg; type: functional
Felis catus [7] = assay: Effect on rise in arterial pressure in anesthetized cats at intravenous dose of 1000 ug/kg; type: functional, Artery

| SMILES | Heart rate (Felis catus [1]) [beats min-1] | Arterial pressure (Felis catus [2]) [mmHg] | Arterial pressure (Felis catus [3]) [mmHg] | Heart rate (Felis catus [4]) [beats min-1] | Arterial pressure (Felis catus [5]) [mmHg] | Heart rate (Felis catus [6]) [beats min-1] | Arterial pressure (Felis catus [7]) [mmHg] |
| --- | --- | --- | --- | --- | --- | --- | --- |
| NC1CCCc2c(O)cc(O)cc2C1 (centres undefined) | 4.3 | 78.7 | 40 | 42 | 25.3 | 11.7 |  |
| CCCN(CCC)C1Cc2cc(O)cc(O)c2C1 (centres undefined) |  |  | 10 | 21.7 |  | 0 | 22.8 |
| NC1Cc2cc(O)cc(O)c2C1 (centres undefined) |  |  | 13.3 | 7.3 |  | 0 | 70.3 |
